Experimental data as given in patent US10870886B2, “Molecular diagnosis of FSHD by epigenetic signature” (University of Massachusetts Medical Center, priority 2014, dated 2020).

Key:
DUX4-fl = DUX4-fl mRNA expression by qRT-PCR in myogenic cells treated with epigenetic drugs; type: cell-based, human; details: for DUX4-fl response: cells from nonmanifesting subjects 15B, 28B, 30B; for DUX4-fl levels: healthy control myogenic cells (five cohorts)
Protocol: (§1) Drug treatment. Stock solutions of 100 mM 5-Aza-2′-deoxycytidine/Decitabine, (Sigma-Aldrich A3656) in DMSO, 5 mM Trichostatin A solution (TSA, Sigma-Aldrich T1952), and 10 mM chaetocin (Sigma-Aldrich C9492) in DMSO were stored at −20° C. and diluted with PBS just before adding to the culture. To minimize culturing artifacts, low passage (<30 population doublings) myoblast cultures were used for all experiments and culture pairs for affected vs healthy or affected vs nonmanifesting were within 1 passage of each other in all instances. Myoblasts were seeded on collagen-coated plates at a cell density of 1.9×10^3/cm^2. Starting the following day, Decitabine (5 μM final concentration) was added daily for a total of 3 days. When used, TSA (200 nM final concentration) or chaetocin (50 nM final concentration) was added to the cells for the last 24 hrs prior to sampling.
qRT-PCR. Total RNAs were extracted using Trizol (Invitrogen) and purified using the RNeasy Mini kit (Qiagen) after on-column DNase I digestion. Total RNA (2 μg) was used for cDNA synthesis using Superscript III Reverse Transcriptase (Invitrogen), and 200 ng of cDNA were used for DUX4-fl qPCR analysis as described. All data were normalized to levels of 18S rRNA [98]. Oligonucleotide primer sequences are provided in [33]. For the analysis of ANKRD1 mRNA expression, 40 ng of cDNA were used with primers hANKRD1 For: […] (SEQ ID NO: 16) and Rev: […] (SEQ ID NO: 17).

[1] = system: ANKRD1 (Ankyrin Repeat Domain 1); assay: ANKRD1 mRNA expression by qRT-PCR in drug-treated myocytes (control gene); type: cell-based, human; details: myocytes of cohorts 07 and 19, affected (A) and control (U)
Protocol: as §1
qRT-PCR. Total RNAs were extracted using Trizol (Invitrogen) and purified using the RNeasy Mini kit (Qiagen) after on-column DNase I digestion. Total RNA (2 μg) was used for cDNA synthesis using Superscript III Reverse Transcriptase (Invitrogen), and 200 ng of cDNA were used for DUX4-fl qPCR analysis as described. All data were normalized to levels of 18S rRNA [98]. Oligonucleotide primer sequences are provided in [33]. For the analysis of ANKRD1 mRNA expression, 40 ng of cDNA were used with primers hANKRD1 For: […] […]

[2] = cells from FSHD1 individuals manifesting weakness 15A, 28A, 29A, 30A
[3] = myogenic cells of FSHD1-affected subject 03A, relative to untreated, Decitabine 5 μM daily 3 days, TSA 200 nM last 24 hrs

SMILES | DUX4-fl expression (DUX4-fl; [2]) | DUX4-fl response (DUX4-fl) | DUX4-fl induction (DUX4-fl; cohort 07, as quoted in FIG. 22 legend from FIG. 20) [fold] | DUX4-fl induction (DUX4-fl; cohort 19, as quoted in FIG. 22 legend from FIG. 20) [fold] | DUX4-fl levels (DUX4-fl) | DUX4-fl induction (DUX4-fl; [3]) | DUX4-fl induction (DUX4-fl; myogenic cells of FSHD1-affected subject 07A, relative to untreated) [fold] | DUX4-fl induction (DUX4-fl; myogenic cells of FSHD1-affected subject 09A) | DUX4-fl induction (DUX4-fl; myogenic cells of FSHD1-affected subject 17A, relative to untreated) [fold] | DUX4-fl induction (DUX4-fl; myogenic cells of FSHD1-affected subject 19A, relative to untreated) [fold] | DUX4-fl expression (DUX4-fl; cohorts 07 and 19) | ANKRD1 expression [1]
Nc1ncn([C@H]2C[C@H](O)[C@@H](CO)O2)c(=O)n1 [Decitabine, 5-aza-2′-deoxycytidine] | induced DUX4-fl expression | little to no response | 20 | 32 | only mildly induced | 50 fold | 120 | did not show induction | 3.2 | 122 | – | –
CC(/C=C/C(=O)NO)=C\[C@@H](C)C(=O)c1ccc(N(C)C)cc1 [TSA, Trichostatin A] | little to no effect | little to no response | – | – | no effect | showed induction | – | – | – | – | no effect | induced ANKRD1 expression
